Experimental data published in paper PMC6556873, “Rapid Covalent-Probe Discovery by Electrophile-Fragment Screening” (Journal of the American Chemical Society, 2019).
Where two headings read alike, the source gives them in different places.

Key:
[1] = in vitro; set-up: species or system HB2, CCD841; settings: human, hek293 cells
[2] = in vitro; set-up: species or system CCD841, HEK293; settings: human, hb2 cells, read-out: HB-2 Cells Viability (%)
[3] = in vitro; set-up: species or system HB2, HEK293; settings: human, ccd841 cells
[4] = biological target: T1, PCAF (Homo sapiens, UniProt Q92831); set-up: Intact protein LC/MS covalent labelling, fragments in pools of five, 200 uM each, 4 °C; settings: 24 h, 4 °C, pool of five; 200 µM; covalent
T1 construct: gene KAT2B
T1 sequence (Q92831 whole entry, the tested form may be a part): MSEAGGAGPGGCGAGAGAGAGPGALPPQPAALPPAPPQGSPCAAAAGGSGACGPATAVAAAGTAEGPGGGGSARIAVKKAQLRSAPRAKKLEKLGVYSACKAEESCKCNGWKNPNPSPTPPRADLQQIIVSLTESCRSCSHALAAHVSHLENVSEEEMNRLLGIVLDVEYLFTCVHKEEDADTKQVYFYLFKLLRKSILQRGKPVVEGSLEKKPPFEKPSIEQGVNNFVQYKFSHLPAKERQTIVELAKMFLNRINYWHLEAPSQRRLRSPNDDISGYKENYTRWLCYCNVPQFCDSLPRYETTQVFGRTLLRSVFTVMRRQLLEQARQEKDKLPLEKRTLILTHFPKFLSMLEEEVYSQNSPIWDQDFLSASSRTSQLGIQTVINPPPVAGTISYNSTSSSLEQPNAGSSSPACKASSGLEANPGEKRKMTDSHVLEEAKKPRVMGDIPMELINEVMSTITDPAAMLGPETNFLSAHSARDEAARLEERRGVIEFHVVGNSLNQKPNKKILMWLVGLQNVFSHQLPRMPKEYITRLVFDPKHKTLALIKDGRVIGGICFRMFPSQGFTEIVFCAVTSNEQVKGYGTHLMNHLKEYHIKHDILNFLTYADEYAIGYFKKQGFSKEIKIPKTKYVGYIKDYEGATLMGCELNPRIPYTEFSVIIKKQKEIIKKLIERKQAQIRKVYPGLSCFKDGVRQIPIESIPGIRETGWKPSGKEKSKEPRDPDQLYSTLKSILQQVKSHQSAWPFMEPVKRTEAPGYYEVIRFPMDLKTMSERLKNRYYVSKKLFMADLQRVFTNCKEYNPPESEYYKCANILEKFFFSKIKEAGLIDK
Method: (§1) Incubations were performed at 200 μM for each compound and 2 μM of protein (10 μM for BSA) for 24 h at 4 °C with moderate shaking. Incubation buffers varied among proteins (PBS pH 7.4 for QSOX1 and BSA; 10 mM HEPES pH 7.5, 0.3 M NaCl, 0.5 mM TCEP for PCAF, UPS8, and NUDT7; […]; 10 mM Na2HPO4 pH 7.5 100 mM NaCl 5 mM β-mercaptoethanol for NV3CP; 20 mM Na phosphate pH 7.5 for NNMT; […]. The reaction was stopped by quenching with formic acid, 0.4% final concentration. Each protein was incubated with the electrophilic library in pools of five compounds per well. The pool’s composition maximized the difference in mass between fragments in the same well. Incubations were performed with each fragment at 200 μM, for 24 h at 4 °C, to allow the screening of proteins that are not stable for long time periods at higher temperatures. Following incubation, we used intact protein [compound left out] chromatography/mass spectrometry (LC/MS) to identify the fragments and quantify their labeling (Figure 3A). […] There was good agreement between the percent of labeling of NUDT7 by 100 random individual compounds and that obtained in pools of five (R^2=0.78; Figure S6 and Data set 2 in the Supporting Information).

[5] = biological target: T2, NUDT7 (Homo sapiens, UniProt P0C024); set-up: Intact protein LC/MS covalent labelling, fragments in pools of five, 200 uM each, 4 °C; settings: 24 h, 4 °C, pool of five; 200 µM; covalent
T2 construct: residues 14-235, E. coli, pNIC28-Bsa4, N-terminal His6 tag removed by TEV, construct 26672 Da
T2 sequence (P0C024 14-235): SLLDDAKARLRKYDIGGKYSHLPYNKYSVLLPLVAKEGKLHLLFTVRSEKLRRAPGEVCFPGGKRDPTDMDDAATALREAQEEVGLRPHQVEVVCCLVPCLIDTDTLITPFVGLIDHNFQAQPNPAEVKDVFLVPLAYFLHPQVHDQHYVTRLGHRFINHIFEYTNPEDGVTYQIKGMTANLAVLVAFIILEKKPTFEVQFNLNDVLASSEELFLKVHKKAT
Method: as §1

[6] = biological target: T3, BSA (Bos taurus, UniProt P02769); set-up: Intact protein LC/MS covalent labelling, fragments in pools of five, 200 uM each, 4 °C; settings: 24 h, 4 °C, pool of five; 200 µM; covalent
T3 construct: gene ALB
T3 sequence (P02769 whole entry, the tested form may be a part): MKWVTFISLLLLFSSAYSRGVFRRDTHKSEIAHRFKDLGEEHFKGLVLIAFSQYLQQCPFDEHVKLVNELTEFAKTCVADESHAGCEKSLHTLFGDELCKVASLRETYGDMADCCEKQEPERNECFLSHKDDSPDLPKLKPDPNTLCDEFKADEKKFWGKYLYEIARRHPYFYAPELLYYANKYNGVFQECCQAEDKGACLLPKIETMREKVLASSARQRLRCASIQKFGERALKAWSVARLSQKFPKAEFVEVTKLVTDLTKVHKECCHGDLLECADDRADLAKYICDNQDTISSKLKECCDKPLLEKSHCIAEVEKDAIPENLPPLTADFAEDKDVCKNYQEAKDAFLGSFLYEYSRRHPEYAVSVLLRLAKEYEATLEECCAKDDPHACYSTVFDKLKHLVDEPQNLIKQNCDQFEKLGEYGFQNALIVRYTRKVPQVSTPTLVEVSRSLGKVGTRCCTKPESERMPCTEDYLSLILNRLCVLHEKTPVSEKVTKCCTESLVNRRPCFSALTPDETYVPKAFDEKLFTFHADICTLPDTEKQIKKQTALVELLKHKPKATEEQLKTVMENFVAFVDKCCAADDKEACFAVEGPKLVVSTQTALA
Method: as §1

[7] = biological target: T4, OTUB2 (OTUB2A) (Homo sapiens, UniProt Q96DC9); set-up: Intact protein LC/MS covalent labelling, fragments in pools of five, 200 uM each, 4 °C; settings: 24 h, 4 °C, pool of five; 200 µM; covalent
T4 construct: full length residues 1-234, E. coli BL21(DE3)-R3, His tag removed by TEV, construct 27312 Da
T4 sequence (Q96DC9 1-234): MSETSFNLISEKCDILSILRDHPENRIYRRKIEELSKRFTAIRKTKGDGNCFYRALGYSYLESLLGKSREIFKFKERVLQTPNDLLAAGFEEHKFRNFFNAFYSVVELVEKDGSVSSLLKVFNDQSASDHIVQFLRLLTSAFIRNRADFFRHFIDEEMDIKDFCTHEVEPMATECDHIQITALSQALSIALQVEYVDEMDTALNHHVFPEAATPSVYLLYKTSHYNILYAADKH
Method: as §1

| Structure (SMILES) | viability at 48 h, 10 µM [1] [%] | viability at 48 h, 10 µM [2] [%] | viability at 48 h, 10 µM [3] [%] | PCAF [4] | NUDT7 [5] | BSA [6] | OTUB2 [7] |
| --- | --- | --- | --- | --- | --- | --- | --- |
| Cc1c(C#N)c(NC(=O)CCl)n(C2CCCC2)c1C [PCM-0102183] | 9.1 | 23.9 | 56.1 | 0 | 0.28 | 0 | 0 |
| O=C(CCl)Nc1ccc(N2CCCC2=O)cc1 [PCM-0102915] | 17.7 | 59.3 | 65.3 | 0 | 0 | 0 | 0.49 |
| CC1CN(c2ccc(NC(=O)CCl)cc2)CC(C)O1 (stereo not drawn) [PCM-0102750] | 52.7 | 65.9 | 64.7 | 0 | 0 | 0 | 0.24 |
| C=CC(=O)N1CC(c2nc(C)no2)C1 [PCM-0102599] | 90.9 | 108 | 102 | 0 | 0 | 0 | 0 |
| C=CC(=O)NC1CCc2cnn(C(C)C)c2C1 (stereo not drawn) [PCM-0102487] | 97.7 | 95.5 | 120 | 0 | 0 | 0 | 0 |
| O=C(CCl)N(C1CCCCC1)C1CCS(=O)(=O)C1 (stereo not drawn) [PCM-0102760] | 17.4 | 49.7 | 31.1 | 0 | 0.08 | 0 | 0 |
| CCCNC(=O)NC(=O)CCl [PCM-0102702] | 82.9 | 91.6 | 91.6 | 0 | 0 | 0 | 0.22 |
| CC(C)NC(=O)NC(=O)CCl [PCM-0102504] | 66.9 | 92 | 81.5 | 0 | 0 | 0 | 0 |
| CCc1nc(NC(=O)CCl)sc1C [PCM-0102231] | 56.5 | 61.1 | 78.9 | 0 | 0.33 | 0 | 0 |
| CC(C)C(C#N)N1CCN(C(=O)CCl)CC1 (stereo not drawn) [PCM-0102263] | 13.9 | 64 | 65.2 | 0 | 0.17 | 0 | 0.31 |
| Cc1cc(SC#N)cc(C)c1NC(=O)CCl [PCM-0102586] | 51.6 | 27.3 | 14.2 | 0 | 0 | 0 | 0 |
| Cc1cc(C)c(NC(=O)CCl)c(C)c1 [PCM-0102352] | 72.9 | 84.2 | 78.5 | 0 | 0 | 0 | 0 |
| Cc1ccc(NC(=O)CCl)c(Br)c1 [PCM-0102196] | 45.5 | 49.2 | 87.6 | 0 | 0.2 | 0 | 0.14 |
| N#CC1(N2CCN(C(=O)CCl)CC2)CCCCC1 [PCM-0102303] | 91.6 | 103 | 107 | 0 | 0 | 0 | 0.07 |
| C=CC(=O)N1CCC(S(=O)(=O)N2CCCC2)C1 (stereo not drawn) [PCM-0102701] | 85.2 | 97.8 | 95.6 | 0 | 0 | 0.12 | 0 |
| O=C(CCl)N1CCOCC1C1CC1 (stereo not drawn) [PCM-0102870] | 56.7 | 80.6 | 89.5 | 0 | 0.17 | 0 | 0 |
| C=CC(=O)N1CCCC(S(=O)(=O)N2CCOCC2)C1 (stereo not drawn) [PCM-0102849] | 97.9 | 107 | 97.2 | 0 | 0 | 0 | 0 |
| CN(C(=O)CCl)C1(c2ccccc2Cl)CCCCC1=O (stereo not drawn) [PCM-0102359] | 87.5 | 85.2 | 104 | 0 | 0 | 0 | 0 |
| C=CC(=O)NCc1nnc(C(C)(C)C)s1 [PCM-0102727] | 100 | 105 | 108 | 0 | 0 | 0 | 0.18 |
| Cc1cc(NC(=O)CCl)n(C(C)(C)C)n1 [PCM-0103057] | 58.6 | 76.3 | 61.7 | 0 | 0 | 0 | 0 |
| Cc1c(Cl)cnc(NC(=O)CCl)c1Cl [PCM-0102657] | 99.6 | 101 | 98.2 | 0 | 0.06 | 0 | 0.2 |
| O=C(CCl)NC1CCSC1=O (stereo not drawn) [PCM-0103062] | 90.7 | 97.6 | 88.2 | 0 | 0 | 0 | 0 |
| O=C(CCl)N1CCN(S(=O)(=O)c2ccccc2)CC1 [PCM-0102468] | 15 | 12.6 | 54.9 | 0 | 0 | 0 | 0.08 |
| Cc1cc(C)c2nc(NC(=O)CCl)sc2c1 [PCM-0102246] | 67.3 | 51.6 | 79.8 | 0 | 0.83 | 0 | 0.14 |
| CC(NC(=O)CCl)c1cc2ccccc2o1 (stereo not drawn) [PCM-0102117] | 62.9 | 71 | 70.7 | 0 | 0.12 | 0 | 0.41 |
| C=CC(=O)N1CCN(C(=O)C2COc3ccccc3O2)CC1 (stereo not drawn) [PCM-0102999] | 88.3 | 100 | 112 | 0 | 0 | 0 | 0 |
| O=C(CCl)NC(=O)NCc1ccccc1 [PCM-0102122] | 65.5 | 54.8 | 76.9 | 0 | 0 | 0 | 0 |
